Results published in ChEMBL document CHEMBL1201862, “PubChem BioAssay data set” (2004).
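In this assay, cells in 96-well plates receive the compound at five concentrations for 48 hours. Endpoints are linearly interpolated between the surrounding concentrations. The concentration for 50% growth inhibition is given as GI50.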 The source made the active and inactive calls. No stated cut-off is given here; in the data, active = GI50 up to about 1.1 µM and inactive = higher.

Legend:
Experiment in all cases: NCI anticancer screen, dose series, 48 h
NCI-H23 = test system: NCI-H23
Malme-3M = test system: Malme-3M
COLO 205 = test system: COLO 205
Hs-578T = test system: Hs-578T
NCI-H460 = test system: NCI-H460
SK-OV-3 = test system: SK-OV-3
PC-3 = test system: PC-3
IGROV-1 = test system: IGROV-1
RPMI-8226 = test system: RPMI-8226
KM12 = test system: KM12
K562 = test system: K562
786-0 = test system: 786-0
UACC-62 = test system: UACC-62
MDA-N = test system: MDA-N
MOLT-4 = test system: MOLT-4
SF-539 = test system: SF-539
NCI-H522 = test system: NCI-H522
OVCAR-3 = test system: OVCAR-3
MDA-MB-435 = test system: MDA-MB-435
UO-31 = test system: UO-31
MCF7 = test system: MCF7
SK-MEL-5 = test system: SK-MEL-5
T47D = test system: T47D
ACHN = test system: ACHN
BT-549 = test system: BT-549
SF-295 = test system: SF-295
LOX IMVI = test system: LOX IMVI
SK-MEL-28 = test system: SK-MEL-28
OVCAR-5 = test system: OVCAR-5
SW-620 = test system: SW-620
CAKI-1 = test system: CAKI-1
SNB-75 = test system: SNB-75
SF-268 = test system: SF-268
HL-60 = test system: HL-60
CCRF-CEM = test system: CCRF-CEM
NCI/ADR-RES = test system: NCI/ADR-RES
OVCAR-4 = test system: OVCAR-4
A549 = test system: A549
HCT-116 = test system: HCT-116
DU-145 = test system: DU-145
HOP-92 = test system: HOP-92
SK-MEL-2 = test system: SK-MEL-2
SNB-19 = test system: SNB-19
HCT-15 = test system: HCT-15
MDA-MB-231 = test system: MDA-MB-231
HOP-62 = test system: HOP-62
EKVX = test system: EKVX
SN12C = test system: SN12C
HCC 2998 = test system: HCC 2998
M14 = test system: M14
OVCAR-8 = test system: OVCAR-8
RXF 393 = test system: RXF 393
U-251 = test system: U-251
NCI-H226 = test system: NCI-H226
TK-10 = test system: TK-10
HT-29 = test system: HT-29
SR = test system: SR
A498 = test system: A498
UACC-257 = test system: UACC-257

Cc1cccc(-c2cc(O)c3cc(C)cnc3n2)c1
GI50 (NCI-H23): 0.344 µM (active)
GI50 (Malme-3M): 0.111 µM (active)
GI50 (COLO 205): 0.105 µM (active)
GI50 (Hs-578T): 0.244 µM (active)
GI50 (NCI-H460): 0.311 µM (active)
GI50 (SK-OV-3): 0.272 µM (active)
GI50 (PC-3): 0.189 µM (active)
GI50 (IGROV-1): 0.54 µM (active)
GI50 (RPMI-8226): 0.239 µM (active)
GI50 (KM12): 0.0869 µM (active)
GI50 (K562): 0.0411 µM (active)
GI50 (786-0): 0.361 µM (active)
GI50 (UACC-62): 0.331 µM (active)
GI50 (MDA-N): 0.0194 µM (active)
GI50 (MOLT-4): 0.244 µM (active)
GI50 (SF-539): 0.213 µM (active)
GI50 (NCI-H522): 0.0955 µM (active)
GI50 (OVCAR-3): 0.143 µM (active)
GI50 (MDA-MB-435): 0.0185 µM (active)
GI50 (UO-31): 0.745 µM (active)
GI50 (MCF7): 0.305 µM (active)
GI50 (SK-MEL-5): 0.12 µM (active)
GI50 (T47D): 6.5 µM (inactive)
GI50 (ACHN): 0.532 µM (active)
GI50 (BT-549): 0.292 µM (active)
GI50 (SF-295): 0.148 µM (active)
GI50 (LOX IMVI): 0.478 µM (active)
GI50 (SK-MEL-28): 1.63 µM (inactive)
GI50 (OVCAR-5): 0.414 µM (active)
GI50 (SW-620): 0.0475 µM (active)
GI50 (CAKI-1): 0.199 µM (active)
GI50 (SNB-75): 0.157 µM (active)
GI50 (SF-268): 0.724 µM (active)
GI50 (HL-60): 0.0338 µM (active)
GI50 (CCRF-CEM): 0.202 µM (active)
GI50 (NCI/ADR-RES): 0.122 µM (active)
GI50 (OVCAR-4): 1.95 µM (inactive)
GI50 (A549): 0.279 µM (active)
GI50 (HCT-116): 0.118 µM (active)
GI50 (DU-145): 0.279 µM (active)
GI50 (HOP-92): 11.7 µM (inactive)
GI50 (SK-MEL-2): 0.224 µM (active)
GI50 (SNB-19): 0.366 µM (active)
GI50 (HCT-15): 0.183 µM
GI50 (MDA-MB-231): 0.518 µM (active)
GI50 (HOP-62): 0.373 µM (active)
GI50 (EKVX): 0.705 µM (active)
GI50 (SN12C): 0.571 µM (active)
GI50 (HCC 2998): 0.44 µM (active)
GI50 (M14): 0.0998 µM (active)
GI50 (OVCAR-8): 0.39 µM (active)
GI50 (RXF 393): 0.229 µM (active)
GI50 (U-251): 0.147 µM (active)
GI50 (NCI-H226): 0.238 µM (active)
GI50 (TK-10): 5.52 µM (inactive)
GI50 (HT-29): 0.15 µM (active)
GI50 (SR): 0.0368 µM (active)
GI50 (A498): 0.372 µM (active)

CCc1nnc(S)n1/N=C\c1ccc(-c2ccccc2Cl)o1
GI50 (NCI-H23): 26.4 µM (inactive)
GI50 (Malme-3M): 55.7 µM (inactive)
GI50 (COLO 205): 31.3 µM (inactive)
GI50 (Hs-578T): 57 µM (inactive)
GI50 (NCI-H460): 32.4 µM (inactive)
GI50 (SK-OV-3): 56.9 µM (inactive)
GI50 (PC-3): 37.4 µM (inactive)
GI50 (IGROV-1): 38.7 µM (inactive)
GI50 (RPMI-8226): 20.5 µM (inactive)
GI50 (KM12): 28.8 µM (inactive)
GI50 (K562): 21.9 µM (inactive)
GI50 (786-0): 30.8 µM (inactive)
GI50 (UACC-62): 40.6 µM (inactive)
GI50 (MDA-N): 20.5 µM (inactive)
GI50 (MOLT-4): 17.5 µM (inactive)
GI50 (SF-539): 23 µM (inactive)
GI50 (NCI-H522): 24.1 µM (inactive)
GI50 (OVCAR-3): 40.6 µM (inactive)
GI50 (MDA-MB-435): 21 µM (inactive)
GI50 (UO-31): 37.7 µM (inactive)
GI50 (MCF7): 32 µM (inactive)
GI50 (SK-MEL-5): 14.3 µM (inactive)
GI50 (T47D): 25.1 µM (inactive)
GI50 (ACHN): 60.8 µM (inactive)
GI50 (BT-549): 26.4 µM (inactive)
GI50 (SF-295): 46.2 µM (inactive)
GI50 (UACC-257): 53.5 µM (inactive)
GI50 (LOX IMVI): 23.5 µM (inactive)
GI50 (OVCAR-5): 64.6 µM (inactive)
GI50 (SW-620): 27.7 µM (inactive)
GI50 (CAKI-1): 45.3 µM (inactive)
GI50 (SNB-75): 28.2 µM (inactive)
GI50 (SF-268): 32.1 µM (inactive)
GI50 (HL-60): 20.4 µM (inactive)
GI50 (CCRF-CEM): 27.5 µM (inactive)
GI50 (NCI/ADR-RES): 22 µM (inactive)
GI50 (OVCAR-4): 39.4 µM (inactive)
GI50 (A549): 32.6 µM (inactive)
GI50 (HCT-116): 23.8 µM (inactive)
GI50 (DU-145): 41.3 µM (inactive)
GI50 (HOP-92): 33.2 µM (inactive)
GI50 (SK-MEL-2): 30.8 µM (inactive)
GI50 (SNB-19): 45.3 µM (inactive)
GI50 (HCT-15): 28.2 µM
GI50 (MDA-MB-231): 42.2 µM (inactive)
GI50 (HOP-62): 90.2 µM (inactive)
GI50 (EKVX): 36.4 µM (inactive)
GI50 (SN12C): 37.2 µM (inactive)
GI50 (HCC 2998): 27.3 µM (inactive)
GI50 (M14): 33.2 µM (inactive)
GI50 (OVCAR-8): 24.3 µM (inactive)
GI50 (RXF 393): 38.9 µM (inactive)
GI50 (U-251): 32.3 µM (inactive)
GI50 (NCI-H226): 17.5 µM (inactive)
GI50 (TK-10): 43.7 µM (inactive)
GI50 (HT-29): 33.4 µM (inactive)
GI50 (SR): 19.6 µM (inactive)
GI50 (A498): 36.6 µM (inactive)
